Data from article PMC5238714 (Biochemistry, 2016).

Key:
GARFTase = details: read-out: reported Ki with GARFTase; in vitro assays; cited from earlier work
[1] = target: T1, human GARFTase (formyltransferase domain) (Homo sapiens, UniProt P22102); assay: GAR transformylase; format: biochemical; details: ratio of Ki values
T1 sequence (P22102 810-1010 limits assumed): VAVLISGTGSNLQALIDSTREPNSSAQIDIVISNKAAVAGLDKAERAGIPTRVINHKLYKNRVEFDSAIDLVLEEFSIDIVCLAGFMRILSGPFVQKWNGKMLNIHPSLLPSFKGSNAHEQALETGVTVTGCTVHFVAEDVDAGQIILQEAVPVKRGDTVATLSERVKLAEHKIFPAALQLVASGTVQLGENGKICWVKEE

Nc1nc(N)c(CCCC(C(=O)C(F)(F)F)c2ccc(C(=O)N[C@@H](CCC(=O)O)C(=O)O)cc2)c(=O)[nH]1 (some centres unmarked) [10-trifluoroacetyl antifolate, 10-(trifluoroacetyl)-5,10-dideazaacyclic-5,6,7,8-tetrahydrofolic acid]
Ki (GARFTase): 15 nM

Nc1nc2[nH]c(CCCCCCCC(=O)N[C@@H](CCC(=O)O)C(=O)O)cc2c(=O)[nH]1 [AGF147]
fold weaker GARFTase inhibition than AGF94 and AGF145 [1]: roughly 1.5 fold
